Patent publication US20050181042A1, “Composition for oral or rectal administration” (priority 2002, published 2005)

Assay: Plasma gentamycin after oral administration to NZW rabbits
Format: in vivo
Settings: for Plasma concentration of gentamycin: n = 3
Description: NZW rabbits were used in all experiments and all tablet/capsules were administered orally. The animals were given four, five or six tablets/capsules followed by water until they had swallowed the tablets/capsules. The animals were deprived of food for about 18 hours before dosing. […] The blood samples were centrifuged for 10 min at approximately 2000×g to obtain plasma for determination of gentamycin by EMIT 2000 TDM assay on a Hitachi 704 Analyzer (Table 10).
The area under the curve (AUC) was calculated by the linear trapezoidal rule to the last blood concentration. Two different doses (5 or 10 mg/kg bodyweight) were used during the experiments. For comparison of the results of the different formulations the AUC was divided by the respective dose of gentamycin. The obtained plasma concentration for pure gentamycin was set to 1. The obtained plasma concentrations for gentamycin in the three different lipid formulations were then expressed as multiple factors of increasing bioabsorption.

Gentamycin sulphate [Gentamycin 1]
Correlation factor (multiple of bioabsorption, pure gentamycin = 1) (dose-adjusted AUC relative to Gentamycin 1): 1 | Plasma concentration of gentamycin (oral, dose 10 mg/kg, 0 hrs): 0 microgram/mL | Plasma concentration of gentamycin (oral, dose 10 mg/kg, 0.5 hrs): 0.01 microgram/mL | Plasma concentration of gentamycin (oral, dose 10 mg/kg, 1 hr): 0.01 microgram/mL | Plasma concentration of gentamycin (oral, dose 10 mg/kg, 2 hrs): 0.02 microgram/mL | Plasma concentration of gentamycin (oral, dose 10 mg/kg, 4 hrs): 0.01 microgram/mL | Plasma concentration of gentamycin (oral, dose 10 mg/kg, 6 hrs): 0.03 microgram/mL | AUC (oral, dose 10 mg/kg, linear trapezoidal rule to last blood concentration (6 hrs)): 0.09
